# Test results taken from patent publication US5811391A, “Cyclic CS-1 peptidomimetics, compositions and methods of using same” (Cytel Corporation, priority 1995, dated 1998).
# “And” between values parts separate entries of the source, which are not always exact repeats. Equal values may be shown once. Positions of bridges follow the written chain, without caps; N, C: chain ends. Non-standard residues stand in square brackets, D forms with d. Residues, ends and D or L forms follow the SMILES beside them. No end group written: not given here. *: point of attachment. PhAc = O=C(Cc1ccccc1)*
# Tests used:
# VLA-4/sVCAM-1 = target: T1, VLA-4/sVCAM-1 (Homo sapiens, UniProt P05556+P13612); test: In vitro binding assay: Jurkat cells to solid phase-bound sVCAM-1; format: cell-based; conditions: for relative potencies for inhibiting Jurkat cell binding to solid phase-bound sVCAM-1: compared against each other, XLDFp = 1
# T1 construct: host or cells: Jurkat cells carry the VLA-4; The sVCAM-1 partner was made in house in transfected human embryonal kidney 293 cells (ATCC CRL 1573)
# T1 sequence (P13612 34-1032): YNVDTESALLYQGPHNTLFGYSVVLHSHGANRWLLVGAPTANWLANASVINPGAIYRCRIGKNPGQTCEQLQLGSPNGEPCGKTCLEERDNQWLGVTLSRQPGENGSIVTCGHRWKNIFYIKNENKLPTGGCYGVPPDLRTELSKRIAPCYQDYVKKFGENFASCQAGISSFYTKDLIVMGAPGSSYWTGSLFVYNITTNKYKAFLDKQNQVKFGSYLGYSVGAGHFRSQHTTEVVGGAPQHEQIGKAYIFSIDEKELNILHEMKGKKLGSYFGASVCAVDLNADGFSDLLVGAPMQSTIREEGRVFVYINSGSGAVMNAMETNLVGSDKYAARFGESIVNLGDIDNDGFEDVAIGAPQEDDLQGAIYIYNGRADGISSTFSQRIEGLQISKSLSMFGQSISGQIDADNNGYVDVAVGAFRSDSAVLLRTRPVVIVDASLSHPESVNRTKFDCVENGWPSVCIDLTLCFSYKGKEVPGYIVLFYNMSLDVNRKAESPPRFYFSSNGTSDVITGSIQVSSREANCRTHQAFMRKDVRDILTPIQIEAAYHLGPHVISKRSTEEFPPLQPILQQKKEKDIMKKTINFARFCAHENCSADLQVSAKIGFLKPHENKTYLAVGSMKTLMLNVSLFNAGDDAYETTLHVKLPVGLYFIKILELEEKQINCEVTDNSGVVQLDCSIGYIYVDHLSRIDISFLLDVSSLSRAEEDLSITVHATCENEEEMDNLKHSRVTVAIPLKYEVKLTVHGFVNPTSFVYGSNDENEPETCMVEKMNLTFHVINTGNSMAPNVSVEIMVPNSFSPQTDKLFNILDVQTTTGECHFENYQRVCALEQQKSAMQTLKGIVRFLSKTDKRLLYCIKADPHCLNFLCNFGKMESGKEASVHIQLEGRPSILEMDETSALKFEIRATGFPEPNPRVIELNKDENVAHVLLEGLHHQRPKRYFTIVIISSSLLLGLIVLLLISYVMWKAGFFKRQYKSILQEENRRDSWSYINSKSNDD
# T1 sequence (P05556 21-798): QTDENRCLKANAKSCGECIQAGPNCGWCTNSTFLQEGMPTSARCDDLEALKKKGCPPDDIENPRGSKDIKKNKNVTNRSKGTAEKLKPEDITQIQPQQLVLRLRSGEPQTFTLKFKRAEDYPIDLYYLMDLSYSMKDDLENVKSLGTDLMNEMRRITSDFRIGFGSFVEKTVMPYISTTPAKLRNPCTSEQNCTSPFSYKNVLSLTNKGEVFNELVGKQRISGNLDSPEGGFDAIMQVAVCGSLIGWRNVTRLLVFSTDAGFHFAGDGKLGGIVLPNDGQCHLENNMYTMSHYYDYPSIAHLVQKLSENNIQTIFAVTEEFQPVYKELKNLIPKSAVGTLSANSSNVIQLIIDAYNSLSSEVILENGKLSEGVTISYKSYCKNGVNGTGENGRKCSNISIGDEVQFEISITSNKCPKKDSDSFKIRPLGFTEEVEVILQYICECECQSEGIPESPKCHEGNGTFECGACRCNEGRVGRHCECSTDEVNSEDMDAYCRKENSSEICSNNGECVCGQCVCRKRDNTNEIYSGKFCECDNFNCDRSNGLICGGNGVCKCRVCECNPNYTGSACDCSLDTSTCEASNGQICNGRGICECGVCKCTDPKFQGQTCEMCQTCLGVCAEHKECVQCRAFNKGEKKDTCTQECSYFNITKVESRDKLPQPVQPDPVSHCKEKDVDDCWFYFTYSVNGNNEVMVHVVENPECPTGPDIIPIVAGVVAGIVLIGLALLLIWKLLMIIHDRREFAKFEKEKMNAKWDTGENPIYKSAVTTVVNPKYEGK
# Procedure: Assays conducted using sVCAM-1 as solid phase-bound antigen were carried out substantially identically to those using CS-1. The sVCAM-1 polypeptide used had the same amino acid residue sequence as the materials described in Lobb et al., Biochem. Biophys. Res. Commun., 178:1498-1504 (1991) and Cybulsky et al., Proc. Natl. Acad. Sci., USA, 88:7859-7863 (1991). Human embryonal kidney line 293 (ATCC CRL 1573) cells were co-transfected with a plasmid (pCDNAI;invitrogen) containing the sVCAM-1 DNA sequence and plasmid pSV2-neo [Southern et al., J. Mol. Appl. Gen., 1:327-341 ([…])]. Cells were selected in DMEM, 10 percent fetal bovine serum and 600 μg/ml Geneticin. sVCAM-1 was purified from supernatants using a column containing monoclonal antibody P3H12 (anti-human VCAM-1) coupled to Sepharose 4B. The sVCAM-1 was eluted using 0.1M glycine at pH 2.5 following 50 column washes with PBS, pH 7.2. The eluate was immediately neutralized and dialyzed against PBS for use.
# [1] = Retention of potency in PBS containing 10 percent mouse or human serum; format: in vitro ADME; conditions: PBS at 7.2-7.4 containing 10 percent mouse or human serum
# VLA-4 [2] = target: T2, VLA-4 (Homo sapiens, UniProt P05556+P13612); test: In vitro binding assay: 51Cr-labeled Jurkat cells to solid phase-bound CS-1 peptide (SEQ ID NO:5); format: cell-based; design: inflammatory cells that contain the VLA-4 receptor [Jurkat cells; host or cells: Jurkat cells (human T lymphoblastic line); conditions: for Relative Potency: Table 1, normalized IC50 potency relative to standard peptide SEQ ID NO:6 (=1), Jurkat cells, CS-1; for CS-1 inhibition potencies relative to each other: ratio XLDFZ:XLDFp:SEQ ID NO:7, XLDFp = 1; for Potency in inhibiting Jurkat cell binding to CS-1 relative to standard 10-mer of SEQ ID NO:6: times/fold more potent than SEQ ID NO:6
# T2 sequence (P13612 34-1032): as the sequence (P13612 34-1032) above
# T2 sequence (P05556 21-798): as the sequence (P05556 21-798) above
# Procedure: Binding inhibition is measured here as a concentration of peptide that inhibits one-half the binding between a standard number of Jurkat cells and a standard amount of CS-1 peptide bound to the surface of a microtiter plate well. Those concentrations are conveniently expressed as IC50 values, smaller numbers indicating a lower concentration required to inhibit 50 percent binding and therefore greater potency. Further specifics of this assay are provided hereinafter.
# Jurkat cells (ATCC TIB 152), a human T lymphoblastic line, labeled with ^51 chromium were used to assay in vitro binding inhibition provided by various peptides discussed herein.
# The plates were prepared as follows: The 25-mer CS-1 peptide (SEQ ID NO:5) dissolved at 0.5-1 μg/ml in a buffer of 0.1M NaHCO3 at pH 9.5 that also contained 10 μg/ml of bovine serum albumin (BSA) or a conjugate of the CS-1 peptide linked to ovalbumin (CS-1-OVA) dissolved at 1-2.5 μg/ml in the same buffer was used as the substrate. Each well of the microtiter plates was coated with 50 μl of substrate or buffer alone for controls. The wells were permitted to dry out completely and were then rinsed twice with PBS at pH 7.4. Non-specific binding sites of each well were then blocked using 200 μl per well of RPMI/1 percent BSA for two hours at room temperature. Both solid phase-affixed substrates provided similar results.
# Jurkat cells (3-5×10^6 cells) were placed into a 15 ml FALCON™ round-bottom tube with a cap. The tube was centrifuged, and the extra medium was then removed.
# Two hundred microliters of a ^51 Cr labeling solution were added to the centrifuged cells and maintained in contact with the cells for 90-120 minutes in a warm room. This procedure typically provides about 50,000-100,000 cpm/well with about 80-100 percent cell viability. Longer contact times provide a greater amount of labeling but lower cell viability.
# The labeled cells were washed with (i) complete medium, (ii) 1mM EDTA/PBS and then (iii) RPM1/1 percent BSA free of serum components. The cells were centrifuged after each washing. The cells were finally resuspended in serum-free RPMI/1 percent BSA at a concentration of 1×10^6 viable cells/ml, which provides a concentration that is diluted by one-half in the assay.
# Cyclic inhibitor peptides were prepared as stock solutions at 20 mg/ml in DMSO in 1.5 ml cryogenic screwcap vials, and were stored at -70° C. Using FLOW™ round-bottom or V-bottom microtiter plates, the inhibitor peptides were prepared at twice the assay concentration in RPMI/1 percent BSA at 60 μl/well.
# Four initial dilutions were typically used.
# The ^51 Cr-labeled cells (1×10^6 cells at 60 μl/well) were then admixed with the diluted cyclic peptide solutions. The admixtures were maintained at room temperature (about 22° C.) for 30 minutes.
# One hundred microliters of each inhibitor peptide/cell admixture were transferred to the substrate-coated wells. This was done in triplicate for each dilution. The resulting plates were incubated for 30 minutes at 37° C. and then washed gently three times with RPMI/1 percent BSA at 200 μl/well. Binding was observed microscopically, particularly after the second wash.
# The bound cells were then lysed by the addition of a 0.5 percent solution of sodium dodecylsulfate in water at 100 μl/well. The resulting solutions were then processed for counting and calculation of IC50 values following usual procedures. Appropriate positive and negative controls were used with each plate so that the results of separate assays could be normalized and compared.
# The potency data of Table 1 and Table 2 are so normalized. The absolute IC50 value for the peptide of SEQ ID NO:7 is 0.3 μM.
# [3] = test system: porcine peripheral blood lymphocytes / coronary artery endothelial cells and smooth muscle cells; test: In vitro porcine allograft model: transendothelial lymphocyte migration; format: cell-based; conditions: 10 μg/ml in the medium, IL-1β-stimulated SMC; present-tense example
# Procedure: A similar study is carried out in vitro using porcine coronary artery endothelial cells (EC; as are present in the IEL) and smooth muscle cells (SMC; as are present in the medial layer of the artery). The two cell types are cultured using a membrane transwell system, with the SMC on the bottom layer in M-199 medium (Gibco Labs.). The SMC are stimulated with 100 ng/ml of interleukin-1β (IL-1β) for 24 hours prior to the start of the assay. Porcine peripheral blood lymphocytes are separated by Ficoll-Hypaque, radiolabeled and incubated overnight (about 18 hours) on the EC.
# contact hypersensitivity = conditions: Ferguson et al. 1991; cited from earlier work
# [4] = Elices et al. 1993; cited from earlier work
# [5] = test system: Jurkat cell adhesion to RA synovial sections; conditions: 10-mer at 500 μg/ml; reported in Elices et al., J. Clin. Invest. 1994; cited from earlier work
# VLA-4 [6] = target: T2, VLA-4; conditions: cited from earlier work
compound,measurement,setting,value
"NC(=O)[C@@H]1CSSC[C@H](NC(=O)Cc2ccccc2)C(=O)N[C@@H](CC(=O)O)C(=O)N[C@@H](Cc2ccccc2)C(=O)N1 [SEQ ID NO:7, .phi.AcCDFC-NH2] (PhAc-CDFC-NH2; disulfide 1-4)",potency relative to the best linear peptide (XLDFZ) as inhibitor of Jurkat cell binding to sVCAM-1,VLA-4/sVCAM-1,about 3 times
same,relative potencies for inhibiting Jurkat cell binding to solid phase-bound sVCAM-1,VLA-4/sVCAM-1,~3.8
same,loss of potency in serum-containing buffer,[1],no loss of potency after 24 hours
same,potency relative to the best linear peptide (XLDFZ) for inhibiting Jurkat cell binding to CS-1,VLA-4 [2],about two-thirds the potency
same,Relative Potency,VLA-4 [2],526
same,CS-1 inhibition potencies relative to each other,VLA-4 [2],~1.8
same,Potency in inhibiting Jurkat cell binding to CS-1 relative to standard 10-mer of SEQ ID NO:6,VLA-4 [2],500-600 and ~563
"CC(C)C[C@@H]1NC(=O)[C@H](Cc2ccccc2)NC(=O)[C@@H](N)CSSC[C@@H](C(N)=O)NC(=O)[C@H](CO)NC(=O)[C@@H]2CCCN2C(=O)[C@H](Cc2ccccc2)NC(=O)[C@H](CC(=O)O)NC1=O [SEQ ID NO:13, CFLDFPSC-NH2] (H-CFLDFPSC-NH2; disulfide 1-8)",transendothelial lymphocyte migration,[3],reduces lymphocyte migration
same,Relative Potency,VLA-4 [2],122
"CC(C)C[C@H](NC(=O)Cc1ccccc1)C(=O)N[C@@H](CC(=O)O)C(=O)N[C@@H](Cc1ccccc1)C(=O)N1CCC[C@@H]1C(N)=O [XLDFp, .phi.Ac-LeuAspPhe-D-Pro-NH2, reference compound] (PhAc-LDF[dP]-NH2)",relative potencies for inhibiting Jurkat cell binding to solid phase-bound sVCAM-1,VLA-4/sVCAM-1,~1
same,CS-1 inhibition potencies relative to each other,VLA-4 [2],~1
same,Potency in inhibiting Jurkat cell binding to CS-1 relative to standard 10-mer of SEQ ID NO:6,VLA-4 [2],~313
Arg-Gly-Asp [Arg-Gly-Asp peptide],recruitment of T lymphocytes to skin inflammatory sites,contact hypersensitivity,also inhibitory
"DELPQLVTLPHPNLHGPEILDVPST [CS-1 peptide, reference compound]",loss of potency in serum-containing buffer,[1],lost its potency in less than one hour
same,clearance from blood circulation,[4],rapidly cleared from blood circulation by proteolytic degradation
"GPEILDVPST [SEQ ID NO:6, standard 10-mer peptide GlyProGluIleLeuAspValProSerThr, set atone, reference compound]",inhibition of binding between solid phase-bound sVCAM-1 and Jurkat cells (in words),VLA-4/sVCAM-1,no inhibition
same,inhibition of Jurkat cell adhesion to RA synovial sections,[5],can be inhibited
same,Relative Potency,VLA-4 [2],1
same,Potency in inhibiting Jurkat cell binding to CS-1 relative to standard 10-mer of SEQ ID NO:6,VLA-4 [2],~1
"ILDFP-NH2 [SEQ ID NO:27, ILDFP-NH2]",Relative Potency,VLA-4 [2],2
"ILDVPILDVP-NH2 [SEQ ID NO:26, ILDVPILDVP-NH2]",Relative Potency,VLA-4 [2],2
Leu-Asp-Val [LDV],affinity of VLA-4 compared with native CS-1 25-mer,VLA-4 [6],at least two orders of magnitude lower affinity
"SFDFS-NH2 [SEQ ID NO:31, SFDFS-NH2]",Relative Potency,VLA-4 [2],< 1
